Assay results reported in patent US10456407B2, “Combination therapy for treating cancer” (Epizyme, Inc., priority 2015, dated 2019).

Assays:
DOHH2 cells = conditions: DOHH2 (WT EZH2 GCB); drug combined with Compound 44
Procedure: (§1) After 3 days of co-treatment, cell viability was measured via ATP content using CellTiter-Glo®
(§2) Synergy quantification is performed using the Chou-Talalay method^3 for drug combination. The Combination Index (CI) equation offers a quantitative definition for additivity (CI=1), synergism (CI<1), and antagonism (CI>1). This equation used Fa values from a constant ratio of drug combination to determine CI values. […] These Fa-CI plots are generated using the Calcusyn software.
(§3) After 3 days of co-treatment (5 days for Toledo assays), cell viability was measured via ATP content using CellTiter-Glo® (Promega) and luminescence was detected using a SpectraMax M5 microplate reader (Molecular Devices).
as §2, with “Chou-Talalay method” for “Chou-Talalay method^3”, “drug combination (Ref 1).” for “drug combination.”, “used fractional effect (Fa)” for “used Fa”, “Calcusyn for Windows software (Ref2).” for “Calcusyn software.”
(§4) Dose responses were plotted using Graphpad Prism and either 50% or 60% inhibitory concentrations were interpolated from the dose response curves.

SU-DHL10 cells = conditions: for growth inhibition by the drug by itself: SU-DHL10, single agent
Procedure: as §1, §2, §3
as §2, with “Chou-Talalay method” for “Chou-Talalay method^3”, “drug combination (Ref 1).” for “drug combination.”, “used fractional effect (Fa)” for “used Fa”, “Calcusyn for Windows software (Ref2).” for “Calcusyn software.”
as §4

Toledo cells = conditions: Toledo (WT EZH2 ABC); drug combined with Compound 44
Procedure: as §1, §2, §3
as §2, with “Chou-Talalay method” for “Chou-Talalay method^3”, “drug combination (Ref 1).” for “drug combination.”, “used fractional effect (Fa)” for “used Fa”, “Calcusyn for Windows software (Ref2).” for “Calcusyn software.”
as §4

WSU-DLCL2 cells = conditions: for growth inhibition by the drug by itself: WSU-DLCL2, single agent
Procedure: as §1, §2, §3
as §2, with “Chou-Talalay method” for “Chou-Talalay method^3”, “drug combination (Ref 1).” for “drug combination.”, “used fractional effect (Fa)” for “used Fa”, “Calcusyn for Windows software (Ref2).” for “Calcusyn software.”
as §4

RP-R-02LM ccRCC PDX = format: in vivo; conditions: tumors at primary site
Procedure: Mice bearing human ccRCC patient derived xenograft (PDXs); RP-R-01, RP-R-02 and RP-R-02LM (a metastatic ccRCC model established from RP-R-02) were implanted into SCID mice. […] Tumors volumes and body weight were assessed once per week. Tumor tissues and lungs were collected for immunohistochemistry analysis. All assessments and quantification were done blindly.

[1] = test system: EZH2 mutant lymphoma cell line; assay: Combination assay with targeted therapies (pre-treatment model A, Calcusyn), EZH2 mutant lymphoma cell line; format: cell-based; conditions: pretreatment model A, combined with Compound 44
Description: Statistically significant CI values for synergy are for example those CI value<1 with the confidence interval lines also below 1.
CI values<1 with confidence interval lines also below 1 indicate statistically significant synergism.

[2] = due to its cardiotoxicity; cited from earlier work
[3] = SU-DHL 10 (EZH2 mutant GCB), drug combined with Compound 44
[4] = WSU-DLCL2 (EZH2 mutant GCB), drug combined with Compound 44

C[C@@H]1C[C@H]2[C@@H]3CCC4=CC(=O)C=C[C@]4(C)[C@@]3(F)[C@@H](O)C[C@]2(C)[C@@]1(O)C(=O)CO [Dexamethasone, dexamethasone]
Summary of Combinations with Compound 44: potency enhanced (DOHH2 cells): potency enhanced 4x | Summary of Combinations with Compound 44: potency enhanced (SU-DHL10 cells; [3]): potency enhanced 5x | Summary of Combinations with Compound 44 (combination effect) (Toledo cells): no effect | Summary of Combinations with Compound 44: potency enhanced (WSU-DLCL2 cells; [4]): 15x

CC[C@]1(O)C[C@H]2CN(CCc3c([nH]c4ccccc34)[C@@](C(=O)OC)(c3cc4c(cc3OC)N(C=O)[C@H]3[C@@](O)(C(=O)OC)[C@H](OC(C)=O)[C@]5(CC)C=CCN6CC[C@]43[C@@H]65)C2)C1 [Vincristine, vincristine]
Summary of Combinations with Compound 44 (combination effect) (DOHH2 cells): no effect | Summary of Combinations with Compound 44 (combination effect) (SU-DHL10 cells; [3]): additive (Cl = 1 additive) | growth inhibition by the drug by itself (SU-DHL10 cells): concentration-dependent growth inhibition | Summary of Combinations with Compound 44 (combination effect) (Toledo cells): no effect | Summary of Combinations with Compound 44 (combination effect) (WSU-DLCL2 cells; [4]): additive (Cl = 1 additive) | growth inhibition by the drug by itself (WSU-DLCL2 cells): concentration-dependent growth inhibition

CCN(c1cc(C#CCN2CCOCC2)cc(C(=O)NCc2c(C)cc(C)[nH]c2=O)c1C)C1CCC(N(C)CCOC)CC1 (centres unmarked) [Compound B]
cell proliferation (Ki67 stain) (RP-R-02LM ccRCC PDX): Decreased cell proliferation

CO[C@H]1C[C@@H]2CC[C@@H](C)[C@@](O)(O2)C(=O)C(=O)N2CCCC[C@H]2C(=O)O[C@H]([C@H](C)C[C@@H]2CC[C@@H](OCCO)[C@H](OC)C2)CC(=O)[C@H](C)/C=C(\C)[C@@H](O)[C@@H](OC)C(=O)[C@H](C)C[C@H](C)/C=C/C=C/C=C/1C [everolimus]
synergy in combination with Compound 44 [1]: Very strong synergy

COc1cccc2c1C(=O)c1c(O)c3c(c(O)c1C2=O)C[C@@](O)(C(=O)CO)C[C@@H]3O[C@H]1C[C@H](N)[C@H](O)[C@H](C)O1 [Doxurubicin, doxorubicin]
Summary of Combinations with Compound 44 (combination effect) (DOHH2 cells): no effect | Summary of Combinations with Compound 44 (combination effect) (SU-DHL10 cells; [3]): additive (Cl = 1 additive) | growth inhibition by the drug by itself (SU-DHL10 cells): concentration-dependent growth inhibition | Summary of Combinations with Compound 44 (combination effect) (Toledo cells): no effect | Summary of Combinations with Compound 44 (combination effect) (WSU-DLCL2 cells; [4]): synergy (Cl < 1 synergy) | growth inhibition by the drug by itself (WSU-DLCL2 cells): concentration-dependent growth inhibition | lifetime cumulative dosing limit [2]: < 550 mg/m^2

CC1(C)CCC(c2ccc(Cl)cc2)=C(CN2CCN(c3ccc(C(=O)NS(=O)(=O)c4ccc(N[C@H](CCN5CCOCC5)CSc5ccccc5)c(S(=O)(=O)C(F)(F)F)c4)cc3)CC2)C1 [Navitoclax]
synergy in combination with Compound 44 [1]: Very strong synergy
